Key:
Format in all cases: cell-based
[1] = target: T1, Pannexin1 (Panx1) (Homo sapiens, UniProt Q96RD7); assay: whole-cell patch clamp of Panx1-transfected HEK293 cells, dose response
[2] = target: T1, Pannexin1 (Panx1); assay: whole-cell patch clamp in transfected HEK293 cells
[3] = target: T1, Pannexin1 (Panx1); assay: whole-cell patch clamp in transfected HEK293 cells; remark: listed apart in the source

T1 sequence (Q96RD7 whole entry): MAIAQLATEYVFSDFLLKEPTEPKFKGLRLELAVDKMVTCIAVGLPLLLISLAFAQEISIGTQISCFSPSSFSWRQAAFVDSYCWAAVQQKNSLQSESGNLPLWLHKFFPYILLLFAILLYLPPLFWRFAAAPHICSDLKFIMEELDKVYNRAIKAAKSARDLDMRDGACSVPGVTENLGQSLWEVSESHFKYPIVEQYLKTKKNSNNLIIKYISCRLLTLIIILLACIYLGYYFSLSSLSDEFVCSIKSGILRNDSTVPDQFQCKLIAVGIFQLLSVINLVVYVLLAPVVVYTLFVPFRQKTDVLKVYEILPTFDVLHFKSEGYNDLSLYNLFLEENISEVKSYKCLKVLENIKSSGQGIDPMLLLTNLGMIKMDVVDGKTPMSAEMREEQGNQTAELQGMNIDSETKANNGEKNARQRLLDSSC

With `CC1(C)[C@@H](OC(=O)CCC(=O)O)CC[C@]2(C)[C@H]3C(=O)C=C4[C@@H]5C[C@@](C)(C(=O)O)CC[C@]5(C)CC[C@@]4(C)[C@]3(C)CC[C@@H]12` [carbenoxolone] the IC50 [1] was ~2 µM.

With `COc1ccc(Cl)cc1C(=O)NCCc1ccc(S(=O)(=O)NC(=O)NC2CCCCC2)cc1` [glybenclamide] the “whole-cell patch clamp in transfected HEK293 cells (150 μM)” value [2] was “W74 is essential not only for CBX, but also for the other four Panx1 inhibitors to function”.

With `CCCN(CCC)S(=O)(=O)c1ccc(C(=O)O)cc1` [probenecid] the “whole-cell patch clamp in transfected HEK293 cells (3 mM and 10 mM)” value [3] was “suggesting that binding of probenecid trapped Panx1 in a nonresting closed conformation”.
